Laboratory results taken from ChEMBL document CHEMBL3046652, “Photodimerization of heteroaryl chalcones: comparative antimicrobial activities of chalcones and their photoproducts” (2012).
In brackets after ≈: the same amount, converted by molar mass.

What was measured:
Format in all cases: functional
[1] = tested on: Aspergillus oryzae; test: Antimicrobial activity against Aspergillus oryzae at 10 ug/disk by disk diffusion method; details: read-out: DIZ
[2] = tested on: Salmonella typhi; test: Antimicrobial activity against Salmonella enterica subsp. enterica serovar Typhi at 10 ug/disk by disk diffusion method; details: read-out: DIZ
[3] = tested on: Micrococcus luteus; test: Antimicrobial activity against Micrococcus luteus by disk diffusion method
[4] = tested on: Priestia megaterium; test: Antimicrobial activity against Bacillus megaterium at 10 ug/disk by disk diffusion method; details: read-out: DIZ
[5] = tested on: Klebsiella pneumoniae; test: Antimicrobial activity against Klebsiella pneumoniae at 10 ug/disk by disk diffusion method; details: read-out: DIZ
[6] = tested on: Priestia megaterium; test: Antimicrobial activity against Bacillus megaterium by disk diffusion method
[7] = tested on: Escherichia coli; test: Antimicrobial activity against Escherichia coli at 10 ug/disk by disk diffusion method; details: read-out: DIZ
[8] = tested on: Citrobacter freundii; test: Antimicrobial activity against Citrobacter freundii by disk diffusion method
[9] = tested on: Serratia marcescens; test: Antimicrobial activity against Serratia marcescens by disk diffusion method
[10] = tested on: Proteus vulgaris; test: Antimicrobial activity against Proteus vulgaris by disk diffusion method
[11] = tested on: Pseudomonas aeruginosa; test: Antimicrobial activity against Pseudomonas aeruginosa by disk diffusion method
[12] = tested on: Fusarium verticillioides; test: Antimicrobial activity against Fusarium verticillioides at 20 ug/disk by disk diffusion method; details: read-out: DIZ
[13] = tested on: Proteus vulgaris; test: Antimicrobial activity against Proteus vulgaris at 10 ug/disk by disk diffusion method; details: read-out: DIZ
[14] = tested on: Salmonella typhi; test: Antimicrobial activity against Salmonella enterica subsp. enterica serovar Typhi by disk diffusion method
[15] = tested on: Micrococcus luteus; test: Antimicrobial activity against Micrococcus luteus at 10 ug/disc by disk diffusion method; details: read-out: DIZ
[16] = tested on: Citrobacter freundii; test: Antimicrobial activity against Citrobacter freundii at 10 ug/disk by disk diffusion method; details: read-out: DIZ
[17] = tested on: Serratia marcescens; test: Antimicrobial activity against Serratia marcescens at 10 ug/disk by disk diffusion method; details: read-out: DIZ
[18] = tested on: Klebsiella pneumoniae; test: Antimicrobial activity against Klebsiella pneumoniae by disk diffusion method
[19] = tested on: Candida albicans; test: Antimicrobial activity against Candida albicans at 20 ug/disk by disk diffusion method; details: read-out: DIZ
[20] = tested on: Escherichia coli; test: Antimicrobial activity against Escherichia coli by disk diffusion method
[21] = tested on: Pseudomonas aeruginosa; test: Antimicrobial activity against Pseudomonas aeruginosa at 10 ug/disk by disk diffusion method; details: read-out: DIZ
[22] = tested on: Aspergillus niger; test: Antimicrobial activity against Aspergillus niger at 10 ug/disk by disk diffusion method; details: read-out: DIZ
[23] = tested on: Candida albicans; test: Antimicrobial activity against Candida albicans at 10 ug/disk by disk diffusion method; details: read-out: DIZ
[24] = tested on: Aspergillus oryzae; test: Antimicrobial activity against Aspergillus oryzae at 30 ug/disk by disk diffusion method; details: read-out: DIZ
[25] = tested on: Serratia marcescens; test: Antimicrobial activity against Serratia marcescens at 10 to 60 ug/disk by disk diffusion method
[26] = tested on: Aspergillus niger; test: Antimicrobial activity against Aspergillus niger at 10 to 60 ug/disk by disk diffusion method
[27] = tested on: Klebsiella pneumoniae; test: Antimicrobial activity against Klebsiella pneumoniae at 10 to 60 ug/disk by disk diffusion method
[28] = tested on: Aspergillus oryzae; test: Antimicrobial activity against Aspergillus oryzae at 10 to 60 ug/disk by disk diffusion method
[29] = tested on: Priestia megaterium; test: Antimicrobial activity against Bacillus megaterium at 10 to 60 ug/disk by disk diffusion method
[30] = tested on: Micrococcus luteus; test: Antimicrobial activity against Micrococcus luteus at 10 to 60 ug/disc by disk diffusion method
[31] = tested on: Candida albicans; test: Antimicrobial activity against Candida albicans at 10 to 60 ug/disk by disk diffusion method
[32] = tested on: Fusarium verticillioides; test: Antimicrobial activity against Fusarium verticillioides at 10 to 60 ug/disk by disk diffusion method
[33] = tested on: Salmonella typhi; test: Antimicrobial activity against Salmonella enterica subsp. enterica serovar Typhi at 10 to 60 ug/disk by disk diffusion method
[34] = tested on: Citrobacter freundii; test: Antimicrobial activity against Citrobacter freundii at 10 to 60 ug/disk by disk diffusion method
[35] = tested on: Pseudomonas aeruginosa; test: Antimicrobial activity against Pseudomonas aeruginosa at 10 to 60 ug/disk by disk diffusion method
[36] = tested on: Escherichia coli; test: Antimicrobial activity against Escherichia coli at 10 to 60 ug/disk by disk diffusion method
[37] = tested on: Proteus vulgaris; test: Antimicrobial activity against Proteus vulgaris at 10 to 60 ug/disk by disk diffusion method
[38] = tested on: Aspergillus niger; test: Antimicrobial activity against Aspergillus niger at 50 ug/disk by disk diffusion method; details: read-out: DIZ
[39] = tested on: Citrobacter freundii; test: Antimicrobial activity against Citrobacter freundii at 20 ug/disk by disk diffusion method; details: read-out: DIZ
[40] = tested on: Candida albicans; test: Antimicrobial activity against Candida albicans at 40 ug/disk by disk diffusion method; details: read-out: DIZ
[41] = tested on: Pseudomonas aeruginosa; test: Antimicrobial activity against Pseudomonas aeruginosa at 40 ug/disk by disk diffusion method; details: read-out: DIZ
[42] = tested on: Fusarium verticillioides; test: Antimicrobial activity against Fusarium verticillioides at 40 ug/disk by disk diffusion method; details: read-out: DIZ
[43] = tested on: Klebsiella pneumoniae; test: Antimicrobial activity against Klebsiella pneumoniae at 20 ug/disk by disk diffusion method; details: read-out: DIZ

Row | SMILES | zone of inhibition at 10 µg/disc [2] [mm] | MIC [3] [µg/mL] | zone of inhibition at 10 µg/disc [4] [mm] | MIC [6] [µg/mL] | zone of inhibition at 10 µg/disc [7] [mm] | MIC [8] [µg/mL] | MIC [9] [µg/mL] | diameter of the inhibition zone (DIZ) [25] [mm] | diameter of the inhibition zone (DIZ) [26] [mm] | diameter of the inhibition zone (DIZ) [27] [mm] | diameter of the inhibition zone (DIZ) [28] [mm] | diameter of the inhibition zone (DIZ) [29] [mm] | diameter of the inhibition zone (DIZ) [30] [mm] | diameter of the inhibition zone (DIZ) [31] [mm] | diameter of the inhibition zone (DIZ) [32] [mm] | diameter of the inhibition zone (DIZ) [33] [mm] | diameter of the inhibition zone (DIZ) [34] [mm] | diameter of the inhibition zone (DIZ) [35] [mm] | diameter of the inhibition zone (DIZ) [36] [mm] | diameter of the inhibition zone (DIZ) [37] [mm] | other results
1 | O=C(/C=C/c1ccccc1)c1ccco1 | 5 | 10 (≈ 50.4 µM) | 11 | 10 (≈ 50.4 µM) | 5 | 10 (≈ 50.4 µM) | 10 (≈ 50.4 µM) |  |  |  |  |  |  |  |  |  |  |  |  |  | zone of inhibition at 10 µg/disc [1]: 8 mm; zone of inhibition at 10 µg/disc [5]: 7 mm; MIC [10]: 10 µg/mL (≈ 50.4 µM); MIC [11]: 10 µg/mL (≈ 50.4 µM); zone of inhibition at 20 µg/disc [12]: 7 mm; zone of inhibition at 10 µg/disc [13]: 8 mm; MIC [14]: 10 µg/mL (≈ 50.4 µM); zone of inhibition at 10 µg/disc [15]: 11 mm; zone of inhibition at 10 µg/disc [16]: 13 mm; zone of inhibition at 10 µg/disc [17]: 5 mm; MIC [18]: 10 µg/mL (≈ 50.4 µM); zone of inhibition at 20 µg/disc [19]: 7 mm; MIC [20]: 10 µg/mL (≈ 50.4 µM); zone of inhibition at 10 µg/disc [21]: 5 mm; zone of inhibition at 10 µg/disc [22]: 11 mm
2 | O=C(/C=C/c1ccco1)c1ccccc1 | 5 | 10 (≈ 50.4 µM) | 9 | 20 (≈ 101 µM) | 5 | 10 (≈ 50.4 µM) | 10 (≈ 50.4 µM) |  |  |  |  |  |  |  |  |  |  |  |  |  | zone of inhibition at 10 µg/disc [5]: 6 mm; MIC [10]: 20 µg/mL (≈ 101 µM); zone of inhibition at 10 µg/disc [23]: 9 mm; MIC [11]: 10 µg/mL (≈ 50.4 µM); zone of inhibition at 20 µg/disc [12]: 7 mm; zone of inhibition at 10 µg/disc [13]: 9 mm; MIC [14]: 10 µg/mL (≈ 50.4 µM); zone of inhibition at 10 µg/disc [15]: 9 mm; zone of inhibition at 10 µg/disc [16]: 7 mm; zone of inhibition at 10 µg/disc [17]: 7 mm; MIC [18]: 10 µg/mL (≈ 50.4 µM); zone of inhibition at 30 µg/disc [24]: 8 mm; MIC [20]: 10 µg/mL (≈ 50.4 µM); zone of inhibition at 10 µg/disc [21]: 5 mm; zone of inhibition at 10 µg/disc [22]: 8 mm
3 | O=C(c1ccco1)C1C(C(=O)c2ccco2)C(c2ccccc2)C1c1ccccc1 (centres undefined) |  |  |  |  |  |  |  | 5 | 5 | 5 | 5 | 5 | 7 | 5 | 6 | 5 | 5 | 5 | 5 | 7 | 
4 | O=C(c1ccc[nH]1)C1C(C(=O)c2ccc[nH]2)C(c2ccccc2)C1c1ccccc1 (centres undefined) |  |  |  |  |  |  |  | 5 | 5 | 5 | 5 | 5 | 5 | 5 | 5 | 5 | 5 | 6 | 5 | 5 | 
5 | O=C(c1cccs1)C1C(C(=O)c2cccs2)C(c2ccccc2)C1c1ccccc1 (centres undefined) |  |  |  |  |  |  |  | 5 | 5 | 5 | 5 | 9 | 7 | 5 | 5 | 6 | 5 | 5 | 5 | 5 | 
6 | OC(/C=C/c1ccco1)(c1ccccc1)C(O)(/C=C/c1ccco1)c1ccccc1 (centres undefined) |  |  |  |  |  |  |  | 5 | 9 | 5 | 5 | 7 | 6 | 5 | 7 | 5 | 9 | 5 | 5 | 9 | 
7 | OC(/C=C/c1cccs1)(c1ccccc1)C(O)(/C=C/c1cccs1)c1ccccc1 (centres undefined) |  |  |  |  |  |  |  | 5 | 5 | 7 | 5 | 5 | 8 | 5 | 5 | 7 | 5 | 5 | 5 | 5 | 
8 | OC(/C=C/c1ccc[nH]1)(c1ccccc1)C(O)(/C=C/c1ccc[nH]1)c1ccccc1 (centres undefined) |  |  |  |  |  |  |  | 5 | 5 | 5 | 9 | 5 | 5 | 5 | 5 | 5 | 5 | 5 | 5 | 5 | 
9 | O=C(/C=C/c1ccc[nH]1)c1ccccc1 | 5 | 10 (≈ 50.7 µM) | 12 | 10 (≈ 50.7 µM) | 6 | 10 (≈ 50.7 µM) | 10 (≈ 50.7 µM) |  |  |  |  |  |  |  |  |  |  |  |  |  | zone of inhibition at 50 µg/disc [38]: 8 mm; zone of inhibition at 10 µg/disc [1]: 9 mm; zone of inhibition at 20 µg/disc [39]: 9 mm; zone of inhibition at 40 µg/disc [40]: 7 mm; MIC [10]: 10 µg/mL (≈ 50.7 µM); MIC [11]: 10 µg/mL (≈ 50.7 µM); zone of inhibition at 10 µg/disc [13]: 5 mm; zone of inhibition at 40 µg/disc [41]: 9 mm; MIC [14]: 10 µg/mL (≈ 50.7 µM); zone of inhibition at 10 µg/disc [15]: 7 mm; zone of inhibition at 10 µg/disc [17]: 7 mm; MIC [18]: 10 µg/mL (≈ 50.7 µM); zone of inhibition at 40 µg/disc [42]: 6 mm; MIC [20]: 10 µg/mL (≈ 50.7 µM); zone of inhibition at 20 µg/disc [43]: 9 mm
